In patent US20250092360A1, “METHODS AND COMPOSITIONS FOR GENERATING SOMATOSTATIN+ INTERNEURONS FROM HUMAN FOREBRAIN NEURAL PROGENITOR CELLS” (Trailhead Biosystems Inc., priority 2023, published 2025):
“And” between values parts separate entries of the source, which are not always exact repeats. Equal values may be shown once. “Also recorded” adds a separate entry of the source.

B1: GDNF: Glial cell line-derived neurotrophic factor; can activate the GDNF pathway (protein, UniProt P39905 78-211, looked up)
Glial cell line-derived …: SPDKQMAVLPRRERNRQAAAANPENSRGKGRRGQRGKNRGCVLTAIHLNVTDLGLGYETKEELIFRYCSGSCDAAETTYDKILKNLSRNRRLVSDKVGQACCRPIAFDDDLSFLDDNLVYHILRKHSAKRCGCI

Key:
[1] = test system: stage 2 neural stem cells; test: Factor criticality analysis, stage 3 recipe; assay type: cell-based, human; conditions: other five stage 3 factors present; for expression level of DLX1 when the factor is removed: 220 with all six factors; for expression level of LHX6 when the factor is removed: 240 with all six factors; for expression level of ASCL1 when the factor is removed: 1650 with all six factors
Procedure: To assess the impact of the elimination of each validated factor, dynamic profile analysis was used and compared the expression level of genes of interest in absence of each finalized factor while others are present.
In the stage 3 recipe, each of the six finalized factors were removed while the other five factors remained present and the expression levels of ASCL1, DLX1 and LHX6 were assessed compared to the presence of all six factors. […] As expected, in the absence of IGF-1, the value of DLX1 increases to 410, however, ASCL1 and LHX6 decreased to 1390 and 220, respectively.

[2] = test system: stage 2 neural stem cells; test: HD-DoE stage 3 experiment: ASCL1, LHX6, DLX1 expression; assay type: cell-based, human; conditions: for factor contribution, expression of ASCL1: positive, model optimized for maximum ASCL1 at 1700
Procedure: To further guide the cells to medial ganglionic eminence progenitor fate, an additional HD-DoE experiment was performed for 3 days on cells that were treated with stage 1 and stage 2 media for total of 6 days prior to start of the experiment. This experiment included 13 effectors, LDN193189, A8301, GNF5837, AZD3147, GSI-XX, Takinib, PD0325901, PD173074, BLU9931, IGF-1, MHY1485, Purmorphamine and Prostratin. In this model, we focused on maximum expression of genes expressed in neuronal progenitor cells in medial ganglionic eminence (MGE) region including ASCL1, LHX6 and DLX1 (Silberberg et al. (2016) Neuron 92:59-74). When the model was optimized for maximum expression of ASCL1 at 1700, A8301, GSI-XX, Purmorphamine and Takinib, which is an inhibitor of TAK1 pathway, had the highest factor contributions, 18.1, 14.1, 12.7 and 10.1 respectively. […] MHY 1485 also had positive contribution however the factor was below 2 (FIG. 9).
Therefore, six effectors including A8301, GSI-XX, Takinib, GNF5837, IGF-1 and Purmorphamine were finalized as ingredients of stage 3 differentiation media. A representative recipe for Stage 3 differentiation is summarized below in Table 3.

[3] = test system: forebrain-committed neural stem cells; test: HD-DoE stage 2, 12-factor experiment: NKX2-1 expression; assay type: cell-based, human; conditions: model / dynamic profile, in words
Procedure: To further guide the differentiation of forebrain-committed neural stem cells to ventral forebrain neural stem cells at stage 2, a HD-DoE experiment was performed for 3 days after termination of stage 1 treatment. […] This 12-factor experiment included LDN193189, BMP7, PD0325901, MK2206, A8301, XAV939, CHIR99021, Purmorphamine, SANT-1, AGN193109, TTNPB and GSI-XX. […]

[4] = test system: medial ganglionic eminence (MGE)-derived neural progenitors; test: Factor criticality analysis, stage 4 recipe; assay type: cell-based, human; conditions: FIG. 27, in words
Procedure: To assess the impact of elimination of each validated factor, dynamic profile analysis was again used to compare the expression levels of genes of interest in the absence of each finalized factor while the others were present in the media.
In the stage 4 recipe, each of the five finalized factors was removed while the other four factors remained present in the media and the expression level of forebrain genes was assessed compared to the presence of all 6 factors. SOX6 expression was reported to determine the cortical interneuron-precursors cell fate (see e.g., Azim et al. (2009) Nature Neurosci. 12:1238-1247; Batista-Brito et al. (2009) Neuron 63:466-481). Therefore, optimization of SOX6 expression was focused on at this stage.

[5] = test system: medial ganglionic eminence (MGE)-derived neural progenitors; test: HD-DoE stage 4, 12-factor experiment: SOX6 expression; assay type: cell-based, human; conditions: for impact on expression of SOX6: dynamic profile, in words; for factor contribution, expression of SOX6: positive impact, model optimized for maximal SOX6 at 1442
Text: These effectors are small chemical compounds or proteins. They are commonly used during the differentiation of stem cells to specific cell linage. The choice of the effectors was based on the current literature on forebrain neural induction and differentiation of neural progenitor cells to mature neurons.
To evaluate the effectors on SST differentiation, experiments with 8 or 12 factors were designed to assess the responses of cells to 48 or more combinations of effectors in a range of concentrations. To analyze the models, we focused on expression of genes involved in development and patterning of the forebrain interneurons maturation including LHX6 (Liodis et al. (2007) J. Neurosci. 27:3078-3089; Yuan et al. (2018) Elife 7: e37382), SOX6 (Azim et al. (2009) Nature Neurosci. 12:1238-1247; Batista-Brito et al. (2009) Neuron 63:466-481), DLX5 (de Lombares et al. (2019) Aging (Albany NY) 11:6638; Wang et al. (2010) J. Neurosci. 30:5334-5345) and ASCL1 (Barretto et al. (2020) J. Neurosci. Meth. 334:108548; Shi et al. (2016) J. Biol. Chem. 291:13560-13570). At later stages we focused on interneuron maturation genes including somatostatin and absence of Parvalbumin (Horn and Nicoll (2018) Proc. Natl. Acad. Sci. 115:589-594). The impacts of each effector on gene expression level are defined by a parameter called factor contribution that is calculated for each effector during the modeling.
To identify the recipe for differentiation at stage 4, at least 48 different combinations of effectors were robotically prepared by the Design-of-Experiments compression through D-optimality. The effector combinations were prepared in a basal media and were subsequently added to the cells, which were then allowed to differentiate. Three days later, RNA extraction was performed, and gene expression levels were examined using quantitative PCR analysis. The data was normalized and modeled using partial least squares regression analysis to the effector design, resulting in the generation of gene-specific models, which after model tuning for maximal predictive power, provided explanation of the effectors ability to control the expression of individual genes, combinatorically, and individually. Solutions within the tested space could then be explored to address desirability.
IGF-1 activates the IGF-1 pathway, promotes neuron axonal growth, and establishes the synapse of interneurons. GDNF is the […] and can activate the GDNF pathway. MK2206 is an AKT inhibitor and can inhibit cell proliferation and promote neuronal maturation. PD173074 and BLU-554 are FGFR inhibitors. The FGF pathway is required for the maintenance of neural progenitor cells. Inhibition of the FGFR pathway promotes neural maturation. GSI-XX is a notch pathway inhibitor. Notch pathway inhibits neural progenitor cell differentiation. Inhibition of the Notch pathway promotes neural differentiation.
To find the set of factors that have the potential to optimize SOX6 in this experiment, a new assessment was done through dynamic profile analysis with focus on maximal expression of SOX6.

[6] = test system: human pluripotent stem cells; test: Factor criticality analysis, stage 1 recipe (dynamic profile analysis); assay type: cell-based; conditions: 3500 with all factors; FIG. 12
Text: To assess the impact of the elimination of each validated factor, dynamic profile analysis was used and compared the expression level of genes of interest in absence of each finalized factor while others are present. […] When Purmorphamine was removed, levels of FEZF2 and SIX3 were decreased to 1000 and below 3000, while levels of OTX2 increased to 6500.

[7] = test system: human pluripotent stem cells; test: HD-DoE stage 1, additional experiment: FEZF2 expression; assay type: cell-based
Procedure: To identify the recipe for stage 1 of differentiation, 96 different combinations of effectors generated using Design-of-Experiments compression through D-optimality were robotically prepared. The effector combinations were prepared in a basal media and were subsequently added to the cells, which were then allowed to differentiate. Three days later RNA extraction was performed, and gene expression was obtained using quantitative PCR analysis. The data were normalized and modeled using partial least squares regression analysis to the effector design, resulting in the generation of gene-specific models, which after model tuning for maximal Q2 predictive power, provided explanation of the effectors ability to control the expression of individual genes, combinatorically, and individually. Solutions within the tested space could then be explored to address desirability. To further enhance the conditions for forebrain differentiation from pluripotency, an additional HD-DoE experiment was performed. Additional gene regulatory models were obtained that were used for preparation of the differentiation protocol. The factors in this experiment included LDN193189, PD173074, BLU9931, Purmorphamine, SC79, MK2206, ZM336372, PD0325901, CHIR99021, XAV939, UCLA-GP130, Tofacitinib and GO6983. […] Dynamic profile analysis was also used to assess the interaction between the effectors.

[8] = test system: forebrain-committed neural progenitor cells; test: HD-DoE stage 5, 8-factor experiment (JQ1, Indolactam-V ...): Somatostatin expression; assay type: cell-based, human
Procedure: To further guide the differentiation of forebrain-committed neural progenitor cells to somatostatin interneuron cells at stage 5, HD-DoE experiments were performed for 3 days after termination of stage 4 treatment. At this time, we focused on maximum expression of SST that was expressed in Somatostatin (+) interneurons and minimum expression of Parvalbumin that is another type of interneurons. This 8-factor experiment included JQ1, (−)-Indolactam-V, Oleic acid, BDNF, IGF-1, 2-phospho-L-Ascorbic acid, Albumax, MK2206. When the model was maximized for expression of Somatostatin, six effectors were identified that could increase its expression levels, including (−)-Indolactam-V, Oleic acid, BDNF, 2-phospho-L-ascorbic acid, Albumax, and MK2206, as shown in FIG. 21. Using dynamic profile analysis, the results of which are shown in FIG. 22, the model was modified to achieve the maximum expression level of Somatostatin and therefore (−)-Indolactam-V, BDNF, and 2-phospho-L-ascorbic acid were included while JQ-1, Oleic acid, Albumax and MK2206 were excluded. Considering the model at different optimization settings for maximum differentiation of cells toward ventral forebrain, the recipe for stage 5 of differentiation included (−)-Indolactam-V, BDNF, IGF-1, and 2-phospho-L-ascorbic acid from this HD-Doe experiment.

[9] = test system: forebrain-committed neural progenitor cells; test: HD-DoE stage 5, 8-factor experiment (GDNF, BDNF, NT-3 ...): Somatostatin expression; assay type: cell-based, human; conditions: FIG. 24 dynamic profile, in words
Procedure: To investigate the effects of other factors on differentiation of forebrain-committed neural progenitor cells to Somatostatin interneuron cells, an additional HD-DoE experiment was performed for 3 days on cells that were treated with stage 1 to stage 4 medium for a total of 12 days prior to the new experiment. This experiment, the results of which are shown in FIG. 23, included eight effectors, GDNF, BDNF, NT-3, ß-NGF, Linoleic acid, 5-Cholesten-3β, LIF and TGF-β3. In this model, we focused on maximum expression of Somatostatin gene expressed in Somatostatin (+) interneurons (Urban-Ciecko and Barth (2016) Nature Reviews Neurosci. 17:401-409). When the model was optimized for maximum expression of Somatostatin, BDNF, NT-3, beta-NGF and Linoleic acid had the highest factor contributions, 25.7, 2, 19.9, 23.5, respectively.
Therefore, the latter were excluded in the recipe.

| Molecule | expression level of DLX1 when the factor is removed [1] | expression level of LHX6 when the factor is removed [1] | expression level of ASCL1 when the factor is removed [1] | impact on expression of ASCL1 ([2]; dynamic profile, in words) | impact on expression of LHX6 ([2]; dynamic profile, in words) | factor contribution, expression of ASCL1 [2] | impact on expression of NKX2-1 [3] | effect on PVALB expression [4] | effect on SOX6 expression [4] | effect on Somatostatin expression [4] | impact on expression of SOX6 [5] | factor contribution, expression of SOX6 [5] | expression level of FEZF2 when the factor is removed [6] | impact on expression of FEZF2 ([7]; dynamic profile, in words) | factor contribution, expression of FEZF2 ([7]; positive impact, additional stage 1 experiment optimized for FEZF2) | impact on expression of Somatostatin ([8]; FIG. 21/22, in words) | factor contribution, expression of Somatostatin ([8]; positive, 8-factor experiment of FIG. 21) | impact on expression of DLX1 ([2]; dynamic profile, in words) | impact on expression of Somatostatin [9] |
| --- | --- | --- | --- | --- | --- | --- | --- | --- | --- | --- | --- | --- | --- | --- | --- | --- | --- | --- | --- |
| C[C@H](NC(=O)Cc1cc(F)cc(F)c1)C(=O)N[C@@H]1C(=O)N(C)c2ccccc2-c2ccccc21 [GSI-XX] | 50 | 140 | 1200 | Positive impact | Positive impact | 14.1 and 14 | increase | minimal effect | increase | contribute | positive impact | 3.6 |  |  |  |  |  |  |  |
| NC1(c2ccc(-c3nc4ccn5c(=O)[nH]nc5c4cc3-c3ccccc3)cc2)CCC1 [MK2206] |  |  |  |  |  |  | increase | decrease | increase |  | positive impact | 7.2 | 2700 | positive impact | 11 and 12.2 | increase; also recorded: positive impact | 4.2 |  |  |
| IGF-1: Growth factor; activates the IGF-1 pathway | 410 | 220 | 1390 | positive effect | positive effect | 7 |  |  | increase |  | positive impact | 2.9 |  |  |  |  |  | negative impact |  |
| B1 |  |  |  |  |  |  |  |  | increase |  | positive impact | 21 |  |  |  |  |  |  | negative impact |
